The values that follow are results of earlier work, collected in patent US6369046B1, “Methods for treating dementia” (The Board of Trustees of the Leland Stanford Junior …, priority 1998, dated 2002).

The conditions of data set [1]: Kawai (1989) supra; cited from earlier work.
Data set [2] addresses T1, glucocorticoid (GR) receptor (Homo sapiens, UniProt P04150).
T1 sequence (P04150 1-777): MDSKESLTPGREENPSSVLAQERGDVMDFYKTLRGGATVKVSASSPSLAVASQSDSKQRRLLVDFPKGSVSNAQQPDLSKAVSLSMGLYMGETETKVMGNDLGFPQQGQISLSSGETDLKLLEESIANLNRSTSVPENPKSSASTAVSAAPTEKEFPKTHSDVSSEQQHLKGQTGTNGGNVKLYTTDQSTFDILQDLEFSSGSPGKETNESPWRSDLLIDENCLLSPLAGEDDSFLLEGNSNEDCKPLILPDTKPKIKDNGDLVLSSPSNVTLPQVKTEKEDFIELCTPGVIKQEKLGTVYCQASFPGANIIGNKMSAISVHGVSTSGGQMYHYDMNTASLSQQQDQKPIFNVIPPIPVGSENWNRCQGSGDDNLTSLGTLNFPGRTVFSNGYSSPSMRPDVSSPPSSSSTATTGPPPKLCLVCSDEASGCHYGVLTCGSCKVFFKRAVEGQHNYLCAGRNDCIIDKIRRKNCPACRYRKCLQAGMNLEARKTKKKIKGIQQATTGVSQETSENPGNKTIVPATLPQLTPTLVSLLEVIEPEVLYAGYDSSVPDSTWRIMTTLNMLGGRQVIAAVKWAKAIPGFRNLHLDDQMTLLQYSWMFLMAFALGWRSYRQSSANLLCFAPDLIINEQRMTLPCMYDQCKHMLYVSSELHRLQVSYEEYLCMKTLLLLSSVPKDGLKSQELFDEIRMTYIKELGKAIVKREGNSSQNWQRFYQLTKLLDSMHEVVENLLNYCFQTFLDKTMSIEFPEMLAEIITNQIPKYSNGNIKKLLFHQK
Particulars: Bocquel (1993) for RU009; cited from earlier work.

Another data set addresses T2, progesterone receptor (Homo sapiens, UniProt P06401).
T2 sequence (P06401 1-933): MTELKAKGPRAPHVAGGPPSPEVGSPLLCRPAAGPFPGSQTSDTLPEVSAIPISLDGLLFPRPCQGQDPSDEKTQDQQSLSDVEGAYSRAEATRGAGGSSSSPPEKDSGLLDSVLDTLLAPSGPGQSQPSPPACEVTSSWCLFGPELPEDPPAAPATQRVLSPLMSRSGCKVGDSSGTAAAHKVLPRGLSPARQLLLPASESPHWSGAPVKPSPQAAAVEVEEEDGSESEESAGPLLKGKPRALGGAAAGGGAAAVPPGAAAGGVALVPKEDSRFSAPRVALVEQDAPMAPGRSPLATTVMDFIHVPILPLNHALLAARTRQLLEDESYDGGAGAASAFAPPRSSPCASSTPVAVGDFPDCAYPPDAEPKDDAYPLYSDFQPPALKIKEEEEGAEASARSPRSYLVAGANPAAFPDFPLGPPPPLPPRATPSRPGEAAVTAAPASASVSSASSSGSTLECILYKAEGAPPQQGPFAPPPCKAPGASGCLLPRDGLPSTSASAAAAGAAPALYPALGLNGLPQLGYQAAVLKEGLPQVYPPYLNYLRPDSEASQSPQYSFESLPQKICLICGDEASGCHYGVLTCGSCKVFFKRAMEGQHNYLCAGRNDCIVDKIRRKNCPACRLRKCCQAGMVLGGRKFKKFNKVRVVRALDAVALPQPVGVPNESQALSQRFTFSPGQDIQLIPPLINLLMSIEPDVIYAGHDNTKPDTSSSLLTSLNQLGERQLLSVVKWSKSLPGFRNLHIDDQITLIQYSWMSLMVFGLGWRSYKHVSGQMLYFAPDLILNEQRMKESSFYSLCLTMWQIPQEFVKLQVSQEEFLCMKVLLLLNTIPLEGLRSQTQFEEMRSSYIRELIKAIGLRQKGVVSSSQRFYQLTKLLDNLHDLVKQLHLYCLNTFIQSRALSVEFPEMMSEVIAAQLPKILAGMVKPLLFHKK
Particulars: cited from earlier work.

`CC#C[C@]1(O)CC[C@H]2[C@@H]3CCC4=CC(=O)CCC4=C3[C@@H](c3ccc(N(C)C)cc3)C[C@@]21C` [mifepristone, 17-beta-hydroxy-11-beta-(4-dimethyl-aminophenyl)-17-alpha-(1-propynyl)-estra-4,9-dien-3-one]: the “fraction of the daily dose excreted in the urine” value in data set [1] was “less than 0.5 % of the daily dose”. Moreover, the GR antagonism entry in data set [2] is listed as “powerful antagonist”. For the same molecule, the progesterone receptor antagonism entry on progesterone receptor is given as “powerful antagonist”.

Consider `CC#C[C@]1(O)CC[C@H]2[C@@H]3CCC4=CC(=O)CCC4=C3[C@@H](c3ccc(OCCN(C)C)cc3)C[C@@]21C` [RU009, 11-beta-(4-dimethyl-aminoethoxyphenyl)-1 7-alpha-(propynyl-17 beta-hydroxy-4,9-estradien-3-one)], for which, in data set [2], the GR antagonism result is “GR antagonist effects”.
